Assay results from patent US20250171404A1, “PCNA INHIBITORS AND USES THEREOF” (CITY OF HOPE, priority 2022, published 2025).

Legend:
7SM0032 = assay: Cell cycle analysis (PI, flow cytometry), nonmalignant cells; type: cell-based, human; conditions: 500 nM; nonmalignant 7SM0032 cells
Procedure: FIGS. 3A-3D. Therapeutic properties of AOH1996. FIG. 3A: Normal cells (7SM0032) or cancer cells (SH-SY5Y and SK-N-BE(2)c) cells were fixed, stained with PI, and analyzed by flow cytometry following treatment with 500 nM AOH1996 for the indicated time. FIG. 3B: SK-N-DZ neuroblastoma cells and nonmalignant 7SM0032 stem cells were incubated with 500 nM AOH1996 for 24 h. Then, after being fixed on slides, cell apoptosis were analyzed by a TUNEL assay. Left: TMR fluorophore attached to the free ends of DNA indicates cells undergoing apoptosis. DAPI stained nuclei also shown. Right: Average abundance ±S.D. of apoptotic 7SM0032 (black histogram) and SK-N-DZ (grey histogram) cells relative to the total number of cells are shown in 5 randomly selected fields. FIG. 3C: Human SK-N-DZ neuroblastoma cells were treated with or without the indicated concentrations of cisplatin in the absence or presence of 500 nM of AOH1996 for 18 hours. […] The relative number of colonies determined in triplicates for each treatment condition were averaged and graphed ±SDs (*, P<0.01). […] Cell growth was measured as the percentage of cell confluence by imaging every 6 h for a total of 48 h.
Cell Cycle Analysis. […] PI fluorescence intensity of the cells was measured by flow cytometry and the data was analyzed using the FlowJo program.

[1] = tested on: nonmalignant cells, including human PBMCs, small airway epithelial cells (hSEAC), and neural crest stem cells (7SM0032); assay: Toxicity to nonmalignant cells
[2] = target: T1, PCNA interaction with RPB1 (Homo sapiens, UniProt P12004); assay: PCNA interaction with RPB1 (immunoprecipitation, western blotting); type: cell-based; conditions: SK-N-AS
T1 construct: expressed in transfected cells; host or cells: SK-N-AS (FLAG-RPB1 exogenous; PCNA endogenous)
Procedure: FIGS. 5A-5E. Modulation of PCNA interaction with RNA polymerase II. FIG. 5A: Chromatin-bound (CB) proteins were fractioned from HEK293T cells expressing FLAG-tagged PCNA after the cells were treated with or without 500 nM AOH1996. Proteins in complex with FLAG-PCNA were immune-precipitated and analyzed by mass spectrometry. Shown are numbers of proteins whose abundances were altered (grey) or unaltered (black) by more than 2-fold by AOH1996 treatment. FIG. 5B: SK-N-AS cells exogenously expressing a FLAG-tagged RPB1 gene were fractioned before and after being treated with 500 nM AOH1996 overnight. PCNA in complex with chromatin-bound (CB) FLAG-RBP1 were analyzed by western blotting. FIG. 5C: Human SK-N-AS cells were treated with UV in the presence or absence of AOH1996 (AOH) or R9-caPep (caPep). Whole cell extracts were analyzed by western blotting. FIG. 5D: Cells exogenously expressing FLAG-tagged wildtype RPB1 or FLAG-tagged APIM-mutant RPB1 gene were fractioned. PCNA in complex with chromatin-bound (CB) FLAG-RBP1 were analyzed by western blotting. FIG. 5E: HEK293T cells were transiently transfected with a FLAG-tagged wildtype RPB1 (APIM WT) gene or mutant RPB1 gene (APIM mutant). The intracellular MCM7 and RBP1 (both the hypo-phosphorylated RNAPIIa and hyper-phosphorylated RNAPIIo forms) were analyzed by western blot after cells were treated by the indicated agents and/or UV.
Modulating PCNA interaction with transcription machinery.
Cell fractionation and immunoprecipitation. Cells were fractionated as previously described (Li et al., 2018). Briefly, intact nuclei isolated following osmotic lysis were homogenized using a 21 G needle. Chromatin was pelleted by centrifugation and incubated overnight at 4° C. with benzonase in two volumes of nuclease buffer (20 mM HEPES pH 7.5, 1.5 mM MgCl2, 1 mM EDTA, 150 mM KCl, 10% glycerol, 0.5 U μl-1 benzonase). The resulting supernatant was collected as the CB fraction. Alternatively, we sequentially incubated the chromatin pellet with RNase A and benzonase and collected the supernatants after each digestion as the CB:RNA+ and CB:RNA− fractions, respectively (Li et al., 2018).

Compound: COc1cccc(Oc2ccccc2NC(=O)CNC(=O)c2cccc3ccccc23)c1 [AOH1996, N-(2-((2-(3-methoxyphenoxy)phenyl)amino)-2-oxoethyl)-1-naphthamide]
- change in cell-cycle profile (7SM0032): does not significantly change the cell-cycle profiles
- difference in sensitivity between cancer and normal cells [1]: 30 fold
- concentration up to which not significantly toxic ([1]; human PBMCs, hSEAC, 7SM0032): at least 10 μM
- PCNA interaction with RPB1 ([2]; chromatin-bound): enhanced interaction between PCNA and RPB1
- RPB1 levels ([2]; whole cell extracts): depleted RPB1 in cancer cells
